How the values were obtained:
Experiment in all cases: relative viability (nuclei count vs DMSO), 5 days (fraction); higher = more cells survive
Linsitinib + Bortezomib = compound: C[C@]1(O)C[C@@H](c2nc(-c3ccc4ccc(-c5ccccc5)nc4c3)c3c(N)nccn32)C1 [Linsitinib] + CC(C)C[C@H](NC(=O)[C@H](Cc1ccccc1)NC(=O)c1cnccn1)B(O)O [Bortezomib] (partner 0.002 µM)
Procedure, shortened: (§1)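 Lung cancer cell lines in 1536-well plates got either a single drug or a fixed anchor-drug dose together with five library-drug doses (not always all listed) in √10 steps, by pin tool, on the day after seeding. Nuclei were counted after 5 days, and relative viability is the treated-to-vehicle ratio of nuclei counts. Values are medians of duplicate plates.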

Ispinesib + Luminespib = compound: Cc1ccc(C(=O)N(CCCN)[C@@H](c2nc3cc(Cl)ccc3c(=O)n2Cc2ccccc2)C(C)C)cc1 [Ispinesib] + CCNC(=O)c1noc(-c2cc(C(C)C)c(O)cc2O)c1-c1ccc(CN2CCOCC2)cc1 [Luminespib] (partner 0.01 µM)
Procedure, shortened: as §1

Linsitinib + Tozasertib = compound: C[C@]1(O)C[C@@H](c2nc(-c3ccc4ccc(-c5ccccc5)nc4c3)c3c(N)nccn32)C1 [Linsitinib] + Cc1cc(Nc2cc(N3CCN(C)CC3)nc(Sc3ccc(NC(=O)C4CC4)cc3)n2)n[nH]1 [Tozasertib] (partner 0.1 µM)
Procedure, shortened: as §1

Ispinesib + AZD7762 = compound: Cc1ccc(C(=O)N(CCCN)[C@@H](c2nc3cc(Cl)ccc3c(=O)n2Cc2ccccc2)C(C)C)cc1 [Ispinesib] + NC(=O)Nc1cc(-c2cccc(F)c2)sc1C(=O)N[C@H]1CCCNC1 [AZD7762] (partner 0.2 µM)
Procedure, shortened: as §1

For NCI-H2405, the relative viability (Linsitinib + Bortezomib; first compound 0.01 µM) was 0.592, the relative viability (Linsitinib + Bortezomib; first compound 0.03162 µM) was 0.929 and the relative viability (Linsitinib + Bortezomib; first compound 0.1 µM) was 0.949. For the same cell line, the relative viability (Linsitinib + Bortezomib; first compound 0.3162 µM) was 0.676, the relative viability (Linsitinib + Bortezomib; first compound 1 µM) was 0.921 and the relative viability (Ispinesib + Luminespib; first compound 0.001 µM) was 0.651. It also gave a relative viability (Ispinesib + Luminespib; first compound 0.003162 µM) of 0.733, a relative viability (Ispinesib + Luminespib; first compound 0.01 µM) of 0.677 and a relative viability (Ispinesib + Luminespib; first compound 0.03162 µM) of 0.637. The relative viability (Ispinesib + Luminespib; first compound 0.1 µM) was 0.52, the relative viability (Linsitinib + Tozasertib; first compound 0.01 µM) was 0.726 and the relative viability (Linsitinib + Tozasertib; first compound 0.03162 µM) was 0.755. For the same cell line, the relative viability (Linsitinib + Tozasertib; first compound 0.1 µM) was 0.729, the relative viability (Linsitinib + Tozasertib; first compound 0.3162 µM) was 0.666 and the relative viability (Linsitinib + Tozasertib; first compound 1 µM) was 0.497. The relative viability (Ispinesib + AZD7762; first compound 0.001 µM) was 0.867, the relative viability (Ispinesib + AZD7762; first compound 0.003162 µM) was 0.791 and the relative viability (Ispinesib + AZD7762; first compound 0.01 µM) was 0.73. It also gave a relative viability (Ispinesib + AZD7762; first compound 0.03162 µM) of 0.711 and a relative viability (Ispinesib + AZD7762; first compound 0.1 µM) of 0.363.
With NCI-H3122 the relative viability (Linsitinib + Bortezomib; first compound 0.01 µM) was 0.994, the relative viability (Linsitinib + Bortezomib; first compound 0.03162 µM) was 1.05 and the relative viability (Linsitinib + Bortezomib; first compound 0.1 µM) was 1.04. The relative viability (Linsitinib + Bortezomib; first compound 0.3162 µM) was 0.86, the relative viability (Linsitinib + Bortezomib; first compound 1 µM) was 1.03 and the relative viability (Ispinesib + Luminespib; first compound 0.001 µM) was 0.105. For the same cell line, the relative viability (Ispinesib + Luminespib; first compound 0.003162 µM) was 0.12, the relative viability (Ispinesib + Luminespib; first compound 0.01 µM) was 0.0892 and the relative viability (Ispinesib + Luminespib; first compound 0.03162 µM) was 0.0855. It also gave a relative viability (Ispinesib + Luminespib; first compound 0.1 µM) of 0.0889, a relative viability (Linsitinib + Tozasertib; first compound 0.01 µM) of 0.458 and a relative viability (Linsitinib + Tozasertib; first compound 0.03162 µM) of 0.373. The relative viability (Linsitinib + Tozasertib; first compound 0.1 µM) was 0.437, the relative viability (Linsitinib + Tozasertib; first compound 1 µM) was 0.425 and the relative viability (Ispinesib + AZD7762; first compound 0.001 µM) was 0.996. It also gave a relative viability (Ispinesib + AZD7762; first compound 0.003162 µM) of 0.982, a relative viability (Ispinesib + AZD7762; first compound 0.01 µM) of 1.15 and a relative viability (Ispinesib + AZD7762; first compound 0.03162 µM) of 0.835. It also gave a relative viability (Ispinesib + AZD7762; first compound 0.1 µM) of 0.141.
With PC-3 [JPC-3] the relative viability (Linsitinib + Bortezomib; first compound 0.01 µM) was 0.745, the relative viability (Linsitinib + Bortezomib; first compound 0.03162 µM) was 0.824 and the relative viability (Linsitinib + Bortezomib; first compound 0.1 µM) was 0.821. For the same cell line, the relative viability (Linsitinib + Bortezomib; first compound 0.3162 µM) was 0.637, the relative viability (Linsitinib + Bortezomib; first compound 1 µM) was 0.713 and the relative viability (Ispinesib + Luminespib; first compound 0.001 µM) was 0.716. The relative viability (Ispinesib + Luminespib; first compound 0.003162 µM) was 0.853, the relative viability (Ispinesib + Luminespib; first compound 0.01 µM) was 0.75 and the relative viability (Ispinesib + Luminespib; first compound 0.03162 µM) was 0.748. It also gave a relative viability (Ispinesib + Luminespib; first compound 0.1 µM) of 0.548, a relative viability (Linsitinib + Tozasertib; first compound 0.01 µM) of 0.87 and a relative viability (Linsitinib + Tozasertib; first compound 0.03162 µM) of 0.911. The relative viability (Linsitinib + Tozasertib; first compound 0.1 µM) was 0.904, the relative viability (Linsitinib + Tozasertib; first compound 0.3162 µM) was 0.777 and the relative viability (Linsitinib + Tozasertib; first compound 1 µM) was 0.793. The relative viability (Ispinesib + AZD7762; first compound 0.001 µM) was 0.937, the relative viability (Ispinesib + AZD7762; first compound 0.003162 µM) was 0.9 and the relative viability (Ispinesib + AZD7762; first compound 0.01 µM) was 0.798. For the same cell line, the relative viability (Ispinesib + AZD7762; first compound 0.03162 µM) was 0.542 and the relative viability (Ispinesib + AZD7762; first compound 0.1 µM) was 0.368.
In the case of PC-14, the relative viability (Linsitinib + Bortezomib; first compound 0.01 µM) is reported as 0.792, the relative viability (Linsitinib + Bortezomib; first compound 0.03162 µM) is reported as 0.762 and the relative viability (Linsitinib + Bortezomib; first compound 0.1 µM) is reported as 1.02. It also gave a relative viability (Linsitinib + Bortezomib; first compound 0.3162 µM) of 0.923, a relative viability (Linsitinib + Bortezomib; first compound 1 µM) of 0.767 and a relative viability (Ispinesib + Luminespib; first compound 0.001 µM) of 0.168. It also gave a relative viability (Ispinesib + Luminespib; first compound 0.003162 µM) of 0.13, a relative viability (Ispinesib + Luminespib; first compound 0.01 µM) of 0.131 and a relative viability (Ispinesib + Luminespib; first compound 0.03162 µM) of 0.131. It also gave a relative viability (Ispinesib + Luminespib; first compound 0.1 µM) of 0.125, a relative viability (Linsitinib + Tozasertib; first compound 0.01 µM) of 0.559 and a relative viability (Linsitinib + Tozasertib; first compound 0.03162 µM) of 0.542. For the same cell line, the relative viability (Linsitinib + Tozasertib; first compound 0.1 µM) was 0.578, the relative viability (Linsitinib + Tozasertib; first compound 0.3162 µM) was 0.486 and the relative viability (Linsitinib + Tozasertib; first compound 1 µM) was 0.427. It also gave a relative viability (Ispinesib + AZD7762; first compound 0.001 µM) of 0.44, a relative viability (Ispinesib + AZD7762; first compound 0.003162 µM) of 0.484 and a relative viability (Ispinesib + AZD7762; first compound 0.01 µM) of 0.388. For the same cell line, the relative viability (Ispinesib + AZD7762; first compound 0.03162 µM) was 0.142 and the relative viability (Ispinesib + AZD7762; first compound 0.1 µM) was 0.111.
For RERF-LC-KJ, the relative viability (Linsitinib + Bortezomib; first compound 0.01 µM) was 0.95, the relative viability (Linsitinib + Bortezomib; first compound 0.03162 µM) was 1.03 and the relative viability (Linsitinib + Bortezomib; first compound 0.1 µM) was 1.16. It also gave a relative viability (Linsitinib + Bortezomib; first compound 0.3162 µM) of 0.892, a relative viability (Linsitinib + Bortezomib; first compound 1 µM) of 0.927 and a relative viability (Ispinesib + Luminespib; first compound 0.001 µM) of 1.49. For the same cell line, the relative viability (Ispinesib + Luminespib; first compound 0.003162 µM) was 1.2, the relative viability (Ispinesib + Luminespib; first compound 0.01 µM) was 0.958 and the relative viability (Ispinesib + Luminespib; first compound 0.03162 µM) was 0.259. The relative viability (Ispinesib + Luminespib; first compound 0.1 µM) was 0.442, the relative viability (Linsitinib + Tozasertib; first compound 0.01 µM) was 0.508 and the relative viability (Linsitinib + Tozasertib; first compound 0.03162 µM) was 0.558. The relative viability (Linsitinib + Tozasertib; first compound 0.1 µM) was 0.573, the relative viability (Linsitinib + Tozasertib; first compound 0.3162 µM) was 0.523 and the relative viability (Linsitinib + Tozasertib; first compound 1 µM) was 0.441. The relative viability (Ispinesib + AZD7762; first compound 0.001 µM) was 0.88, the relative viability (Ispinesib + AZD7762; first compound 0.003162 µM) was 1.1 and the relative viability (Ispinesib + AZD7762; first compound 0.01 µM) was 1.07. It also gave a relative viability (Ispinesib + AZD7762; first compound 0.03162 µM) of 0.701 and a relative viability (Ispinesib + AZD7762; first compound 0.1 µM) of 0.243.

— the supplement of paper PMC10307832
